Test results reported in patent US10117903B1, “Method for regulating cancer stem cell growth by inhibiting phosphorylation of 120th threonine residue of TSPYL5 protein, a composition containing the peptide sequence functioning to inhibit the phosphorylation and a use thereof” (Korea Atomic Energy Research Institute, priority 2016, dated 2018).
Where a SMILES comes first, the peptide text is derived from it. The star is where a group is joined. Cbz = O=C(OCc1ccccc1)*

Tests used:
Format in all cases: cell-based
A549 cells [1] = experiment: Matrigel transwell invasion assay after peptide treatment; conditions: 10 μM peptide, matrigel-coated transwell, compared with the control
Description: (§1) The mixture was loaded in the transwell upper chamber. In the lower chamber, 500 μl of RPMI1640 supplemented with 7% FBS was loaded. Then, the two chambers were combined together. The cells were cultured in a 37° C. 5% CO2 incubator for 40 hours. The upper chamber membrane was wiped with cotton swabs, stained with crystal violet, and then observed under microscope.
(§2) For invasion assay, the transwell upper chamber was coated with 100 μl of matrigel (20 μg/well; BD Biosciences). Then, the rest of the process was the same as described in the migration assay above. The cells stained with crystal violet were eluted with 500 μl of 10% acetic acid. OD600 was measured to calculate the relative migration/invasion value of A549 cells.

A549 cells [2] = experiment: Cancer cell proliferation (colony-forming ability) after peptide treatment; conditions: 10 μM of each peptide, 8 days, crystal violet staining, compared with DMSO control
Description: Particularly, 1×10^3 A549 cells were distributed on a 35 mm plate, which were treated with 10 μM of each peptide. As for the control, DMSO was treated thereto, followed by culture in a 37° C. 5% CO2 incubator for 8 days. The cells were stained with 0.5% crystal violet for 10 minutes. The cells were washed with PBS several times and then cell proliferation was investigated.

A549 cells [3] = experiment: Transwell migration assay (cancer cell metastasis) after peptide treatment; conditions: 10 μM peptide, 40 hours, compared with the control
Description: as §1, §2

A549 cells [4] = experiment: Sphere formation after peptide treatment; conditions: 10 μM of each peptide, 10 days, compared with the control
Description: To investigate the capacity of TSPYL5 peptide to inhibit the sphere formation, 2×10^4 A549 cells (non-small cell lung cancer cells) were suspended in DMEM (Invitrogen) containing stem cell-permissive medium. 20 ng/ml of EGF, 20 ng/ml of basic fibroblast growth factor (bFGF) and B27 serum-free supplement (Invitrogen) were mixed with DMEM-F12 (Invitrogen). The cells were distributed in the 96 well plate pre-coated with 0.8% agar (one cell/well), to which 10 μM of each peptide was treated, followed by culture. The cells were cultured in a 37° C. 5% CO2 incubator for 10 days. Then, the sphere formation was observed.

TSPYL5 = experiment: Ubiquitination assay of TSPYL5
Description: H460 cells were transfected with pcDNA3.1/TSPYL5 (wild-type) and pcDNA3.1/TSPYL5-120A constructed in Example 1. 48 hours later, 10 μM MK2206 was treated to the cells for 1 hour and then the cells were recovered. A protease inhibitor was added to a cell lysis solution (2% SDS, 150 mM NaCl, 10 mM Tris-HCl, pH 8.0), followed by mixing. 100 μl of the solution was added to the cells. The cells were lysed by using a sonicator. Centrifugation was performed at 13000 rpm. The supernatant was obtained, which was diluted in a diluting solution (0.01% SDS, 1.1% Triton X-100, 1.2 mM EDTA, 16.7 mM Tris-HCl (pH8.1), 167 mM NaCl) at 1/10, followed by reaction at 4° C. for 30 minutes. TSPYL5 or ubiquitin specific antibody was added thereto, followed by reaction for overnight to induce protein binding. Protein A/G agarose beads were added thereto, followed by reaction for 4 hours. The protein was washed with washing buffer (10 mM Tris-HCl pH 8.0, 1 M NaCl, 1 mM EDTA, 1% NP40) twice. The protein was mixed with loading buffer and heated at 95° C. Samples were loaded, followed by reaction with TSPYL5 or ubiquitin specific antibody to confirm the protein expression.

TSPYL5 protein [5] = experiment: Location of TSPYL5 expression in cells after AKT/PI3K inhibitor (fluorescent microscope); conditions: A549 cells, 10 μM MK2206 or 50 μM LY294002, 4 hours
Description: (§3) 1×10^5 A549 cells placed on the culture dish with the cover glass were treated with 10 μM of MK2206 (AKT inhibitor) and 50 μM of LY294002 (PI3K inhibitor) for 4 hours. The cells were fixed in 4% paraformaldehyde solution for 20 minutes. Then, the cover glass was washed with PBS three times and then treated with 0.5% TritonX-100 solution for 5 minutes. The cover glass was washed again with PBS three times. The cells were treated with 1% BSA for 2 hours, followed by reaction with the primary antibody TSPYL5 (Santa Cruz) diluted in PBS buffer at the ratio of 1:100 for 2 hours. Then, the cells were reacted with the secondary antibody Rabbit (Cell Signaling Technology) diluted at the ratio of 1:1000 for 1 hour. The cells were washed with PBS three times, and then the nucleus was stained with DAPI solution for 5 minutes. The location and the amount of TSPYL5 expression were investigated under fluorescent microscope.

A549 cells [6] = experiment: Western blotting after AKT/PI3K inhibitor treatment; conditions: 10 μM MK2206 or 50 μM LY294002, Western blotting
Description: (§4) Western blotting was performed as follows in order to investigate the protein expression. Lysis buffer (0.05 M Tris-Cl (pH7.4), 0.15 M NaCl, 0.25% deoxycholic acid, 1% NP-40, 1 mM EDTA, and protease inhibitor cocktail) was added to the target cells, followed by reaction at 4° C. for 30 minutes. The cell lysate was centrifuged at 4° C. to obtain the supernatant. The supernatant was quantified. 40 μg of each protein was loaded on SDS-gel, followed by electrophoresis. The proteins were transferred onto nitrocellulose membrane, followed by blocking with BSA containing buffer at room temperature for 30 minutes. Then, the membrane was reacted with the primary antibody PTEN (1:1000), TSPYL5 (Santa Cruz), ALDH1A1, ALDH1A3 (Abcam), CD44, and β-actin, or GAPDH (CST) for 4 hours. Then, the membrane was reacted with the secondary antibody (1:10000). The nitrocellulose membrane was washed 5 times with PBS, followed by sensitization on the film with the detection solution.
as §3
Western blotting was also performed by the same manner as described in Experimental Example <1-1>. As a result, when AKT or PI3K inhibitor was treated to the cells, the expressions of TSPYL5, phosphorylated AKT, CD44, ALDH1A3, and ALDH1A1 were reduced.

TSPYL5 protein [7] = experiment: TSPYL5 expression after inhibition of AKT phosphorylation (PCR and Western blotting); conditions: A549 cells
Description: In addition, 20 μM of MK2206 (Santa Cruze Biotechnology), the AKT (serine/threonine protein kinase) inhibitor, was treated thereto, followed by investigation of the inhibition of AKT phosphorylation and the inhibition of TSPYL5 expression.
as §4, with “solution. […]” for “solution.”

TSPYL5 protein [8] = experiment: TSPYL5 nuclear expression after SUMOylation inhibition; conditions: A549 cells, 3 uM, 2 hours
Description: However, in the cells expressing pcDNA3.1/TSPYL5-120A, the SUMOylation was not observed. To confirm the SUMOylation inhibition, the SUMO1 inhibitor ginkgolic acid (Abcam) was treated to A549 cells at the concentration of 3 uM for 2 hours.

[9] = H460 cells transfected with pcDNA3.1/TSPYL5, 10 μM MK2206, 1 hour

**Q.** Which results are given for “SERSSADAVFVGTAG (SERSAADAVFVGTAG; TS120A) [mutant peptide in which the 120th T was substituted with A]”?
**A.** invasion (A549 cells [1]): did not make any big difference with the control; cell proliferation (A549 cells [2]): not changed; metastasis (migration) (A549 cells [3]): did not make any big difference with the control; sphere formation (A549 cells [4]): not much changed

**Q.** “SERSAADDVFVGTAG (TS120D) [phosphorylation analogue mutant peptide in which the 120th T was substituted with D]” was tested. Which invasion (A549 cells [1]) did it give?
**A.** The invasion was “reduced”.

**Q.** What about the cell proliferation (A549 cells [2]) of the same molecule?
**A.** Its cell proliferation is “significantly inhibited”.

**Q.** What about the cell proliferation (A549 cells [2]; listed as SEQ. ID. NO: 44) of the same molecule?
**A.** Its cell proliferation is “reduced”.

**Q.** What about the “metastasis (migration)” value (A549 cells [3]) of the same molecule?
**A.** The value was “reduced”.

**Q.** And the sphere formation (A549 cells [4])?
**A.** The sphere formation was “suppressed”.

**Q.** And the sphere formation (A549 cells [4]; listed as SEQ. ID. NO: 44)?
**A.** The sphere formation was “inhibited”.

**Q.** Which “protein degradation of TSPYL5” value (TSPYL5; H460 cells, when the 120th amino acid of TSPYL5 was phosphorylated) does the source give for `CC(C)C[C@@H](C=O)NC(=O)[C@H](CC(C)C)NC(=O)[C@H](CC(C)C)NC(=O)OCc1ccccc1` [MG132] (Cbz-Leu-Leu-Leu-aldehyde) here?
**A.** The value was “suppressed”.

**Q.** How did the “TSPYL5 expression in the nucleus” value (TSPYL5 protein [5]) turn out when `NC1(c2ccc(-c3nc4ccn5c(=O)[nH]nc5c4cc3-c3ccccc3)cc2)CCC1` [MK2206] was run?
**A.** The value was “not expressed in the nucleus”.

**Q.** And the “expression of ALDH1A1” value (A549 cells [6])?
**A.** The value was “reduced”.

**Q.** And the “expression of ALDH1A3” value (A549 cells [6])?
**A.** The value was “reduced”.

**Q.** What about the “expression of CD44” value (A549 cells [6]) of the same molecule?
**A.** The value was “reduced”.

**Q.** What about the “expression of TSPYL5” value (A549 cells [6]) of the same molecule?
**A.** The value was “reduced”.

**Q.** What about the “expression of phosphorylated AKT” value (A549 cells [6]) of the same molecule?
**A.** Its value is “reduced”.

**Q.** What about the “phosphorylation of TSPYL5” value (TSPYL5; [9]) of the same molecule?
**A.** The value was “inhibited”.

**Q.** What about the “ubiquitination of TSPYL5” value (TSPYL5; [9]) of the same molecule?
**A.** The value was “increased”.

**Q.** What about the AKT phosphorylation (TSPYL5 protein [7]; 20 μM MK2206) of the same molecule?
**A.** Its AKT phosphorylation is “suppressed”.

**Q.** And the “expression of TSPYL5 protein” value (TSPYL5 protein [7]; 20 μM MK2206, time course)?
**A.** Its value is “inhibited in proportion to the suppression time of AKT phosphorylation”.

**Q.** “SERSAADTVFVGTAG (TS120T) [15 mer peptide containing the 120th residue threonine of TSPYL5]” was tested. Which invasion (A549 cells [1]) did it give?
**A.** Its invasion is “reduced”.

**Q.** What about the cell proliferation (A549 cells [2]) of the same molecule?
**A.** Its cell proliferation is “significantly inhibited”.

**Q.** And the cell proliferation (A549 cells [2]; listed as SEQ. ID. NO: 43)?
**A.** Its cell proliferation is “reduced”.

**Q.** What about the “metastasis (migration)” value (A549 cells [3]) of the same molecule?
**A.** The value was “reduced”.

**Q.** What about the sphere formation (A549 cells [4]) of the same molecule?
**A.** The sphere formation was “suppressed”.

**Q.** And the sphere formation (A549 cells [4]; listed as SEQ. ID. NO: 43)?
**A.** The sphere formation was “inhibited”.

**Q.** For ginkgolic acid, which “TSPYL5 protein expression in the nucleus” value (TSPYL5 protein [8]) is on record?
**A.** Its value is “not expressed in the nucleus”.
